Results as given in US20220313698A1, “MODULATORS OF CYSTIC FIBROSIS TRANSMEMBRANE CONDUCTANCE REGULATOR” (Vertex Pharmaceuticals Incorporated, priority 2019, published 2022).

Target: CFTR-mediated chloride transport (Homo sapiens, UniProt P13569)
Assay: Corrector Assay A - membrane potential dye assay (enteroid cells)
Details: for EC50: read-out: Corrector Assay A EC50, human intestinal enteroid cells, 18-24 h incubation, acute 10 μM forskolin + 300 nM ivacaftor
[1] = % of chloride transport of triple combination control (1 μM (14S)-dispiro macrocycle + 3 μM tezacaftor + 300 nM ivacaftor)

Experimental: Base medium (ADF+++) consisted of Advanced DMEM/Ham's F12, 2 mM Glutamax, 10 mM HEPES, 1 μg/ml penicillin/streptomycin.
Intestinal enteroid maintenance medium (IEMM) consisted of ADF+++, 1×B27 supplement, 1×N2 supplement, 1.25 mM N-acetyl cysteine, 10 mM Nicotinamide, 50 ng/mL hEGF, 10 nM Gastrin, 1 μg/mL hR-spondin-1, 100 ng/mL hNoggin, TGF-b type 1 inhibitor A-83-01, 100 μg/mL Primocin, 10 μM P38 MAPK inhibitor SB202190.
Bath 1 Buffer consisted of 1 mM MgCl2, 160 mM NaCl, 4.5 mM KCl, 10 mM HEPES, 10 mM Glucose, 2 mM CaCl2).
Chloride Free Buffer consisted of 1 mM Magnesium Gluconate, 2 mM Calcium Gluconate, 4.5 mM Potassium Gluconate, 160 mM Sodium Gluconate, 10 mM HEPES, 10 mM Glucose.
Bath 1 Dye Solution consisted of Bath 1 Buffer, 0.04% Pluronic F127, 20 μM Methyl Oxonol, 30 μM CaCCinh-A01, 30 μM Chicago Sky Blue.
Chloride Free Dye Solution consisted of Chloride Free Buffer, 0.04% Pluronic F127, 20 μM Methyl Oxonol, 30 μM CaCCinh-A01, 30 μM Chicago Sky Blue.
Chloride Free Dye Stimulation Solution consisted of Chloride Free Dye Solution, 10 μM forskolin, 100 μM IBMX, and 300 nM Ivacaftor.
Cells were recovered in cell recovery solution, collected by centrifugation at 650 rpm for 5 min at 4° C., resuspended in TryPLE and incubated for 5 min at 37° C. Cells were then collected by centrifugation at 650 rpm for 5 min at 4° C. and resuspended in IEMM containing 10 μM ROCK inhibitor (RI). The cell suspension was passed through a 40 μm cell strainer and resuspended at 1×10^6 cells/mL in IEMM containing 10 μM RI. Cells were seeded at 5000 cells/well into multi-well plates and incubated for overnight at 37° C., 95% humidity and 5% CO2 prior to assay.
Briefly, cells were washed 5 times in Bath 1 Buffer. Bath 1 Dye Solution was added and the cells were incubated for 25 min at room temperature. Following dye incubation, cells were washed 3 times in Chloride Free Dye Solution. Chloride transport was initiated by addition of Chloride Free Dye Stimulation Solution and the fluorescence signal was read for 15 min. The CFTR-mediated chloride transport for each condition was determined from the AUC of the fluorescence response to acute forskolin and 300 nM N-[2,4-bis(1,1-dimethylethyl)-5-hydroxyphenyl]-1,4-dihydro-4-oxoquinoline-3-carboxamide stimulation. Chloride transport was then expressed as a percentage of the chloride transport following treatment with 1 μM (14S)-8-[3-(2-{Dispiro[2.0.2.1]heptan-7-yl}ethoxy)-1H-pyrazol-1-yl]-12,12-dimethyl-2λ^6-thia-3,9,11,18,23-pentaazatetracyclo[17.3.1.111,14.05,10]tetracosa-1(22),5,7,9,19(23),20-hexaene-2,2,4-trione, 3 μM (R)-1-(2,2-difluorobenzo[d][1,3]dioxol-5-yl)-N-(1-(2,3-dihydroxypropyl)-6-fluoro-2-(1-hydroxy-2-methylpropan-2-yl)-1H-indol-5-yl)cyclopropanecarboxamide and 300 nM acute N-[2,4-bis(1,1-dimethylethyl)-5-hydroxyphenyl]-1,4-dihydro-4-oxoquinoline-3-carboxamide triple combination control (% Activity).

Row | Corrector Assay A % activity [1] | EC50 [nM] | Corrector Assay A % activity (given as a number, not a class symbol, % of triple combination control) [%] | Structure (SMILES)
1 | + (+ is <30%) | > 3000 |  | CC(C)(C)c1ccc2c(n1)N1C[C@@H](CCC(CCC(C3CC3)C3CC3)Nc3cccc(n3)S(=O)(=O)NC2=O)CC1(C)C (single isomer, unassigned) [Compound 51]
2 | ++ (++ is 30-60%) | < 1000 |  | CC(C)(C)c1ccc2c(n1)N1C[C@@H](CCC(CCC(C3CC3)C3CC3)Nc3cccc(n3)S(=O)(=O)NC2=O)CC1(C)C (single isomer, unassigned) [Compound 52]
3 | +++ (+++ is >60%) | < 1000 |  | CC(C)(C)c1ccc2c(n1)N1C[C@@H](CC[C@@H](c3ncccc3Br)Nc3cccc(n3)S(=O)(=O)NC2=O)CC1(C)C (single isomer, unassigned) [Compound 53]
4 | + (+ is <30%) | > 3000 |  | CC(C)(C)c1ccc2c(n1)N1C[C@@H](CC[C@@H](c3ncccc3Br)Nc3cccc(n3)S(=O)(=O)NC2=O)CC1(C)C (single isomer, unassigned) [Compound 54]
5 | +++ (+++ is >60%) | < 1000 |  | CC(C)(C)NCc1ccnc([C@@H]2CC[C@@H]3CN(c4nc(C(C)(C)C)ccc4C(=O)NS(=O)(=O)c4cccc(n4)N2)C(C)(C)C3)c1 (single isomer, unassigned) [Compound 61]
6 | ++ (++ is 30-60%) | 1000 to 3000 |  | CC(C)(C)NCc1ccnc([C@@H]2CC[C@@H]3CN(c4nc(C(C)(C)C)ccc4C(=O)NS(=O)(=O)c4cccc(n4)N2)C(C)(C)C3)c1 (single isomer, unassigned) [Compound 62]
7 | ++ (++ is 30-60%) | < 1000 |  | CC(C)(C)c1ccc2c(n1)N1C[C@@H](CCC(c3ncccc3Cl)Nc3cccc(n3)S(=O)(=O)NC2=O)CC1(C)C (single isomer, unassigned) [Compound 65]
8 | + (+ is <30%) | > 3000 |  | CC(C)(C)c1ccc2c(n1)N1C[C@@H](CCC(c3ncccc3Cl)Nc3cccc(n3)S(=O)(=O)NC2=O)CC1(C)C (single isomer, unassigned) [Compound 66]
9 | +++ (+++ is >60%) | < 1000 |  | CC(C)(C)c1ccc2c(n1)N1C[C@@H](CC[C@@H](c3cc(-c4cn[nH]c4)ccn3)Nc3cccc(n3)S(=O)(=O)NC2=O)CC1(C)C (single isomer, unassigned) [Compound 68]
10 | ++ (++ is 30-60%) | < 1000 |  | CC(C)(C)c1ccc2c(n1)N1C[C@@H](CC[C@@H](c3cc(-c4cn[nH]c4)ccn3)Nc3cccc(n3)S(=O)(=O)NC2=O)CC1(C)C (single isomer, unassigned) [Compound 69]
11 | +++ (+++ is >60%) | < 1000 |  | CC(C)(C)c1ccc2c(n1)N1C[C@@H](CC[C@@H](c3cc(-c4cc[nH]n4)ccn3)Nc3cccc(n3)S(=O)(=O)NC2=O)CC1(C)C (single isomer, unassigned) [Compound 73]
12 | ++ (++ is 30-60%) | < 1000 |  | CC(C)(C)c1ccc2c(n1)N1C[C@@H](CC[C@@H](c3cc(-c4cc[nH]n4)ccn3)Nc3cccc(n3)S(=O)(=O)NC2=O)CC1(C)C (single isomer, unassigned) [Compound 74]
13 | +++ (+++ is >60%) | < 1000 |  | CC(C)(C)c1ccnc(C2CC[C@@H]3CN(c4nc(C(C)(C)C)ccc4C(=O)NS(=O)(=O)c4cccc(n4)N2)C(C)(C)C3)c1 (single isomer, unassigned) [Compound 75]
14 | ++ (++ is 30-60%) | < 1000 |  | CC(C)(C)c1ccnc(C2CC[C@@H]3CN(c4nc(C(C)(C)C)ccc4C(=O)NS(=O)(=O)c4cccc(n4)N2)C(C)(C)C3)c1 (single isomer, unassigned) [Compound 76]
15 | ++ (++ is 30-60%) | < 1000 |  | CC(C)(C)c1ccc2c(n1)N1C[C@@H](CC[C@H](c3ccc(C(F)(F)F)cn3)Nc3cccc(n3)S(=O)(=O)NC2=O)CC1(C)C (single isomer, unassigned) [Compound 80]
16 | + (+ is <30%) | < 1000 |  | CC(C)(C)c1ccc2c(n1)N1C[C@@H](CC[C@@H](c3ccc(C(F)(F)F)cn3)Nc3cccc(n3)S(=O)(=O)NC2=O)CC1(C)C (single isomer, unassigned) [Compound 81]
17 | ++ (++ is 30-60%) | < 1000 |  | CC(C)(C)c1ccc2c(n1)N1C[C@@H](CCC(c3cc(C(N)=O)ccn3)Nc3cccc(n3)S(=O)(=O)NC2=O)CC1(C)C (single isomer, unassigned) [Compound 82]
18 | ++ (++ is 30-60%) | < 1000 |  | CC(C)(C)c1ccc2c(n1)N1C[C@@H](CCC(c3cc(C(N)=O)ccn3)Nc3cccc(n3)S(=O)(=O)NC2=O)CC1(C)C (single isomer, unassigned) [Compound 83]
19 | +++ (+++ is >60%) | < 1000 |  | CC(C)(C)c1ccc2c(n1)N1C[C@@H](CC[C@@H](c3cc(CCN)ccn3)Nc3cccc(n3)S(=O)(=O)NC2=O)CC1(C)C (single isomer, unassigned) [Compound 84]

Row | Corrector Assay A % activity [1] | EC50 [nM] | Corrector Assay A % activity (given as a number, not a class symbol, % of triple combination control) [%] | Structure (SMILES)
20 | ++ (++ is 30-60%) | < 1000 |  | CC(C)(C)c1ccc2c(n1)N1C[C@@H](CC[C@@H](c3cc(CCN)ccn3)Nc3cccc(n3)S(=O)(=O)NC2=O)CC1(C)C (single isomer, unassigned) [Compound 85]
21 | ++ (++ is 30-60%) | < 1000 |  | CN(C)Cc1ccnc([C@@H]2CC[C@@H]3CN(c4nc(C(C)(C)C)ccc4C(=O)NS(=O)(=O)c4cccc(n4)N2)C(C)(C)C3)c1 (single isomer, unassigned) [Compound 86]
22 | + (+ is <30%) | < 1000 |  | CN(C)Cc1ccnc([C@@H]2CC[C@@H]3CN(c4nc(C(C)(C)C)ccc4C(=O)NS(=O)(=O)c4cccc(n4)N2)C(C)(C)C3)c1 (single isomer, unassigned) [Compound 87]
23 |  | < 1000 | 52.5 | CC(C)(C)c1ccc2c(n1)N1C[C@@H](CC[C@@H](c3cc(C(F)(F)F)ccn3)Nc3cccc(n3)S(=O)(=O)NC2=O)CC1(C)C (single isomer, unassigned) [Compound 92]
24 | +++ (+++ is >60%) | < 1000 |  | CC(C)(C)c1ccc2c(n1)N1C[C@@H](CC[C@H](c3cc(C(F)(F)F)ccn3)Nc3cccc(n3)S(=O)(=O)NC2=O)CC1(C)C (single isomer, unassigned) [Compound 93]
25 | ++ (++ is 30-60%) | < 1000 |  | CC(C)(C)c1ccc2c(n1)N1C[C@@H](CC[C@H](c3cccc(C(F)(F)F)n3)Nc3cccc(n3)S(=O)(=O)NC2=O)CC1(C)C (single isomer, unassigned) [Compound 94]
26 | ++ (++ is 30-60%) | < 1000 |  | CC(C)(C)c1ccc2c(n1)N1C[C@@H](CC[C@@H](c3cccc(C(F)(F)F)n3)Nc3cccc(n3)S(=O)(=O)NC2=O)CC1(C)C (single isomer, unassigned) [Compound 95]
27 | ++ (++ is 30-60%) | < 1000 |  | COC(=O)NCc1ccnc(C2CC[C@@H]3CN(c4nc(C(C)(C)C)ccc4C(=O)NS(=O)(=O)c4cccc(n4)N2)C(C)(C)C3)c1 (single isomer, unassigned) [Compound 107]
28 | ++ (++ is 30-60%) | < 1000 |  | COC(=O)NCc1ccnc(C2CC[C@@H]3CN(c4nc(C(C)(C)C)ccc4C(=O)NS(=O)(=O)c4cccc(n4)N2)C(C)(C)C3)c1 (single isomer, unassigned) [Compound 108]
29 | +++ (+++ is >60%) | < 1000 |  | CC(C)(C)c1ccc2c(n1)N1C[C@@H](CCC(c3cc(CCCN)ccn3)Nc3cccc(n3)S(=O)(=O)NC2=O)CC1(C)C (single isomer, unassigned) [Compound 109]
30 | + (+ is <30%) | > 3000 |  | CC(C)(C)c1ccc2c(n1)N1C[C@@H](CCC(c3cc(CCCN)ccn3)Nc3cccc(n3)S(=O)(=O)NC2=O)CC1(C)C (single isomer, unassigned) [Compound 110]
31 | +++ (+++ is >60%) | < 1000 |  | CC(C)(C)c1ccc2c(n1)N1C[C@@H](CCC(c3cc(CN)ccn3)Nc3cccc(n3)S(=O)(=O)NC2=O)CC1(C)C (single isomer, unassigned) [Compound 115]
32 | +++ (+++ is >60%) | < 1000 |  | CC(C)(C)c1ccc2c(n1)N1C[C@@H](CCC(c3cc(CN)ccn3)Nc3cccc(n3)S(=O)(=O)NC2=O)CC1(C)C (single isomer, unassigned) [Compound 116]
33 | +++ (+++ is >60%) | < 1000 |  | CC(C)(C)OC(=O)NCc1ccnc(C2CC[C@@H]3CN(c4nc(C(C)(C)C)ccc4C(=O)NS(=O)(=O)c4cccc(n4)N2)C(C)(C)C3)c1 (single isomer, unassigned) [Compound 119]
34 | +++ (+++ is >60%) | < 1000 |  | CC(C)(C)OC(=O)NCc1ccnc(C2CC[C@@H]3CN(c4nc(C(C)(C)C)ccc4C(=O)NS(=O)(=O)c4cccc(n4)N2)C(C)(C)C3)c1 (single isomer, unassigned) [Compound 120]
35 | +++ (+++ is >60%) | < 1000 |  | CC(C)(C)c1ccc2c(n1)N1C[C@@H](CC[C@@H](c3cc(C4CCOCC4)ccn3)Nc3cccc(n3)S(=O)(=O)NC2=O)CC1(C)C (single isomer, unassigned) [Compound 121]
36 | ++ (++ is 30-60%) | < 1000 |  | CC(C)(C)c1ccc2c(n1)N1C[C@@H](CC[C@@H](c3cc(C4CCOCC4)ccn3)Nc3cccc(n3)S(=O)(=O)NC2=O)CC1(C)C (single isomer, unassigned) [Compound 122]
37 | +++ (+++ is >60%) | < 1000 |  | CC(C)(C)c1ccc2c(n1)N1C[C@@H](CC[C@@H](c3cc(C4=CCOCC4)ccn3)Nc3cccc(n3)S(=O)(=O)NC2=O)CC1(C)C (single isomer, unassigned) [Compound 125]
